What was measured:
[1] = target: Cyclin-dependent kinase-like 1 (Homo sapiens) (UniProt Q00532)
[2] = target: Serine/threonine-protein kinase 38 (Homo sapiens) (UniProt Q15208)
[3] = target: Ribosomal protein S6 kinase alpha-3 (Homo sapiens) (UniProt P51812)
[4] = target: Cyclin-dependent kinase 6 (Homo sapiens) (UniProt Q00534)
[5] = target: Mitogen-activated protein kinase 6 (Homo sapiens) (UniProt Q16659)
[6] = target: Casein kinase I isoform gamma-3 (Homo sapiens) (UniProt Q9Y6M4)
[7] = target: Serine/threonine-protein kinase 16 (Homo sapiens) (UniProt O75716)
Sequence of Serine/threonine-protein kinase 16 (Homo sapiens) (O75716 whole entry): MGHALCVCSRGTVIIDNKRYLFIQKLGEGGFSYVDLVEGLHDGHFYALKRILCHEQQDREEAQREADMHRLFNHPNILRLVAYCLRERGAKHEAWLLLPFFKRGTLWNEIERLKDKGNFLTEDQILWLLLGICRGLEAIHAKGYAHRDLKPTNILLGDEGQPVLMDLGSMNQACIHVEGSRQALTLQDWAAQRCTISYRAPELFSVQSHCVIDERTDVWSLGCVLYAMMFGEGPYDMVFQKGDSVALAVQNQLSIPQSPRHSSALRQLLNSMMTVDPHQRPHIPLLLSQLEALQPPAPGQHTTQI

[8] = target: Dual specificity protein kinase CLK3 (Homo sapiens) (UniProt P49761)
Sequence of Dual specificity protein kinase CLK3 (Homo sapiens) (P49761 whole entry, looked up): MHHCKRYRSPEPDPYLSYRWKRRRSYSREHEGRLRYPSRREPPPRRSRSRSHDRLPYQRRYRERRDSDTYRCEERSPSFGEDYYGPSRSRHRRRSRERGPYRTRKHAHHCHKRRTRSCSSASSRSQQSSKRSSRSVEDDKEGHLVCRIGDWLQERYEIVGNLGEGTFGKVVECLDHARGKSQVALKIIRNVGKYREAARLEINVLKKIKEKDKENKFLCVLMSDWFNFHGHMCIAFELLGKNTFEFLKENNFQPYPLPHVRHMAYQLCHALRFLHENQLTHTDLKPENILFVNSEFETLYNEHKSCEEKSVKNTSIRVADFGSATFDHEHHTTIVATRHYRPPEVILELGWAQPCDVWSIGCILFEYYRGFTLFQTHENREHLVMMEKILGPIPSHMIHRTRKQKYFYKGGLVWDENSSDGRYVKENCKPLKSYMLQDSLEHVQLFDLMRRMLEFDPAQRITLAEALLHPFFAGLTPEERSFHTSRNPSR

[9] = target: Serine/threonine-protein kinase 26 (Homo sapiens) (UniProt Q9P289)
Sequence of Serine/threonine-protein kinase 26 (Homo sapiens) (Q9P289 2-416 limits assumed): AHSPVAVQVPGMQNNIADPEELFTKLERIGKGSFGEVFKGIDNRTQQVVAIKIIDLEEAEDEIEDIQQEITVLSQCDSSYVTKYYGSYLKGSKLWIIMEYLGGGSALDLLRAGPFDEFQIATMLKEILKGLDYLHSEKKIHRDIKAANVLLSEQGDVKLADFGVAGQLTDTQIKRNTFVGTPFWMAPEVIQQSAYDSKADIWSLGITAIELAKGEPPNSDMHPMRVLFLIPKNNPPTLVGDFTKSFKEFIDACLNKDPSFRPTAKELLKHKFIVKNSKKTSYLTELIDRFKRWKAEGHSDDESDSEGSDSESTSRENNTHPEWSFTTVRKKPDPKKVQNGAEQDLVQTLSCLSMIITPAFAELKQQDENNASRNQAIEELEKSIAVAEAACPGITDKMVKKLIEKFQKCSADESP

[10] = target: Serine/threonine-protein kinase VRK2 (Homo sapiens) (UniProt Q86Y07)
[11] = target: Mitogen-activated protein kinase 11 (Homo sapiens, UniProt Q15759)
[12] = target: T1, Serine/threonine-protein kinase PLK4 (Homo sapiens) (UniProt O00444)
T1 sequence (whole entry): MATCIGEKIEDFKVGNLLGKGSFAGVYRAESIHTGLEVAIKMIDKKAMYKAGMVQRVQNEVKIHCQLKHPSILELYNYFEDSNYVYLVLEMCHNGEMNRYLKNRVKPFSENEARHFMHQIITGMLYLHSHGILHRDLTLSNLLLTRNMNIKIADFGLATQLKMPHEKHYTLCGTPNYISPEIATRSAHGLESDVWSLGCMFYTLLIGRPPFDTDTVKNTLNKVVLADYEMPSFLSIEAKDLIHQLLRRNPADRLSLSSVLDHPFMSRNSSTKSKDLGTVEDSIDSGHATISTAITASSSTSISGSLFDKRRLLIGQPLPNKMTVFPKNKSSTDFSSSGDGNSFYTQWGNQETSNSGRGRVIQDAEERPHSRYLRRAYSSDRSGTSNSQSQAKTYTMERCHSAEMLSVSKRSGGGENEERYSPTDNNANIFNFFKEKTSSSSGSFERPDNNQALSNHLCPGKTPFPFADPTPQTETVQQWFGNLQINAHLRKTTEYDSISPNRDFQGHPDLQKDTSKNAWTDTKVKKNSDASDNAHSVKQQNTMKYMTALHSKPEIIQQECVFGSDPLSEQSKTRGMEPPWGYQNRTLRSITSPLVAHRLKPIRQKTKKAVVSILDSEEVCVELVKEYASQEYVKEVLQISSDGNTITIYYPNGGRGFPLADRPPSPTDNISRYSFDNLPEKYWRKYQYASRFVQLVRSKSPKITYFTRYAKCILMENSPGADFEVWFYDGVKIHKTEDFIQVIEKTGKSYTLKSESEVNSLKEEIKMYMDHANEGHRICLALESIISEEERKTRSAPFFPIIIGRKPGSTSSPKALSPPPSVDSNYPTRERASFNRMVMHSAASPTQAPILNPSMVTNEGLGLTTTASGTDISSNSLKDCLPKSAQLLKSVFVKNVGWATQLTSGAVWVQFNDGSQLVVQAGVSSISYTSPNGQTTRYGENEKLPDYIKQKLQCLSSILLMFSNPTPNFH

[13] = target: T2, Serine/threonine-protein kinase VRK3 (Homo sapiens) (UniProt Q8IV63)
T2 sequence (whole entry): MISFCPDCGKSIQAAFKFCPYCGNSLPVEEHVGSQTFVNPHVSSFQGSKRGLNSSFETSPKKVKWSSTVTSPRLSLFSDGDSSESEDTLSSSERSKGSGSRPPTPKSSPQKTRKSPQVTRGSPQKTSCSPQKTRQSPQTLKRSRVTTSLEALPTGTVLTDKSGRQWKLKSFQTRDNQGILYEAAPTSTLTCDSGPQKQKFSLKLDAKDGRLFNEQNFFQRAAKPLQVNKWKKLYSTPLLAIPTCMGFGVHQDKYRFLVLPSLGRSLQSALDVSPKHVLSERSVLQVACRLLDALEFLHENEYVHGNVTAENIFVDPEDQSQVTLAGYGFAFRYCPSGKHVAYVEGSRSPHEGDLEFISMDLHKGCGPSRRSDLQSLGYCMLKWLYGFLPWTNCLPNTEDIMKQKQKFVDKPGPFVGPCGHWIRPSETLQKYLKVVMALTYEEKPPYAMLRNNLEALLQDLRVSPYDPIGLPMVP

[14] = target: T3, Calcium/calmodulin-dependent protein kinase type IV (Homo sapiens) (UniProt Q16566)
T3 sequence (whole entry): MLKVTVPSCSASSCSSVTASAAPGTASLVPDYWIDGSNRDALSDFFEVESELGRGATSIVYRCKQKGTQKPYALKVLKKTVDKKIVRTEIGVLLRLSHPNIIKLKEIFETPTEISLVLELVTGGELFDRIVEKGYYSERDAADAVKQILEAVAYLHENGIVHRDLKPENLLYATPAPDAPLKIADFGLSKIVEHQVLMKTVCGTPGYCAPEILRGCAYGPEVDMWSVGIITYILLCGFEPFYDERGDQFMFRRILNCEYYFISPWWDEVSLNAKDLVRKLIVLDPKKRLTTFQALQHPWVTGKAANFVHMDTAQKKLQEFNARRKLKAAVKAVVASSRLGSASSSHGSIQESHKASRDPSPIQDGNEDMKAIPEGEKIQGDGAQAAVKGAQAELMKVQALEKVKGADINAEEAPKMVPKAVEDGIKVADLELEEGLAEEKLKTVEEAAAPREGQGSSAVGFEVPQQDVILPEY

[15] = target: Calcium/calmodulin-dependent protein kinase type II subunit beta (Homo sapiens) (UniProt Q13554)
Sequence of Calcium/calmodulin-dependent protein kinase type II subunit beta (Homo sapiens) (Q13554 whole entry): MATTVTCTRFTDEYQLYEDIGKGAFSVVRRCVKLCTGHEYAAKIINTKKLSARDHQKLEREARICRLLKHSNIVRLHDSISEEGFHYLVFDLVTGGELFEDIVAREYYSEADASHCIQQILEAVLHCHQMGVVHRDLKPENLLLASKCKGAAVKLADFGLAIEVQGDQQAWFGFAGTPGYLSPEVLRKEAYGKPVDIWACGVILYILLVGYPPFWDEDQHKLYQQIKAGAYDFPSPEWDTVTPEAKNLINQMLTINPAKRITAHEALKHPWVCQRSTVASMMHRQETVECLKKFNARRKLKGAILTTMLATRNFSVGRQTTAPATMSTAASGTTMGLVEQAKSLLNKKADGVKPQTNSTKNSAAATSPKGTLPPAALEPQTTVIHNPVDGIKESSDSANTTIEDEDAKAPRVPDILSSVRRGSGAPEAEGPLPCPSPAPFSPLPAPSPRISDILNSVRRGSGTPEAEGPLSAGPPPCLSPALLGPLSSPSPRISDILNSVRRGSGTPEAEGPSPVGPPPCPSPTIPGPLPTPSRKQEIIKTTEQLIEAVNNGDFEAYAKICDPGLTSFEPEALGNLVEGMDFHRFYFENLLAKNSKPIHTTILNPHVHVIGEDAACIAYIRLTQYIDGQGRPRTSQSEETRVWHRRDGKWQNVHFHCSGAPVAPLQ

[16] = target: Serine/threonine-protein kinase PAK 4 (Homo sapiens) (UniProt O96013)
Sequence of Serine/threonine-protein kinase PAK 4 (Homo sapiens) (O96013 whole entry, looked up): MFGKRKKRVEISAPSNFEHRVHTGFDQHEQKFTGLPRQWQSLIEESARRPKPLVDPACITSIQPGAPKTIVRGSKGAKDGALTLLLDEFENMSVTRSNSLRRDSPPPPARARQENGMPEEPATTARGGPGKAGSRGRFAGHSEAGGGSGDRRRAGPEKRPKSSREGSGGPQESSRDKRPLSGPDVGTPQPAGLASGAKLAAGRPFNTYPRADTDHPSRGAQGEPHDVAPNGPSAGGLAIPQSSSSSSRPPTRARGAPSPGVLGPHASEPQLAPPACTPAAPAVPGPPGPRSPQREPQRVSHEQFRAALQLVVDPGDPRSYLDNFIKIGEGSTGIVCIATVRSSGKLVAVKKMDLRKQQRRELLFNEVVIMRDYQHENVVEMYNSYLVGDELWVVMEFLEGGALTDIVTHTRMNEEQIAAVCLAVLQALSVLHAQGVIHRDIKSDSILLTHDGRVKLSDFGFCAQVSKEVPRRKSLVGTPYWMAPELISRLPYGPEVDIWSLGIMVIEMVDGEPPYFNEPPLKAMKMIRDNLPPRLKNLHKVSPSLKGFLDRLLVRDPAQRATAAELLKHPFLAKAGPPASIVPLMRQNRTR

[17] = target: Serine/threonine-protein kinase pim-2 (Homo sapiens, UniProt Q9P1W9)
Sequence of Serine/threonine-protein kinase pim-2 (Q9P1W9 whole entry, looked up): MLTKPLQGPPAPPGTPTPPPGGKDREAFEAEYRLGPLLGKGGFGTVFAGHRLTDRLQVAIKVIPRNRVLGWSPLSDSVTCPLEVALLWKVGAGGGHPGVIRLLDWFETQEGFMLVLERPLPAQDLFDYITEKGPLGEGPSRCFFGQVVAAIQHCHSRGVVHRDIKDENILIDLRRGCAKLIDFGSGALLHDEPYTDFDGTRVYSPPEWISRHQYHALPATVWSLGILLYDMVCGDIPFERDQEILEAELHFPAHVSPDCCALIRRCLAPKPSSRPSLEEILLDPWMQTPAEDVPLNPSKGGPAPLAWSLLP

[18] = target: Dual specificity protein kinase CLK1 (Homo sapiens) (UniProt P49759)
Sequence of Dual specificity protein kinase CLK1 (Homo sapiens) (P49759 whole entry, looked up): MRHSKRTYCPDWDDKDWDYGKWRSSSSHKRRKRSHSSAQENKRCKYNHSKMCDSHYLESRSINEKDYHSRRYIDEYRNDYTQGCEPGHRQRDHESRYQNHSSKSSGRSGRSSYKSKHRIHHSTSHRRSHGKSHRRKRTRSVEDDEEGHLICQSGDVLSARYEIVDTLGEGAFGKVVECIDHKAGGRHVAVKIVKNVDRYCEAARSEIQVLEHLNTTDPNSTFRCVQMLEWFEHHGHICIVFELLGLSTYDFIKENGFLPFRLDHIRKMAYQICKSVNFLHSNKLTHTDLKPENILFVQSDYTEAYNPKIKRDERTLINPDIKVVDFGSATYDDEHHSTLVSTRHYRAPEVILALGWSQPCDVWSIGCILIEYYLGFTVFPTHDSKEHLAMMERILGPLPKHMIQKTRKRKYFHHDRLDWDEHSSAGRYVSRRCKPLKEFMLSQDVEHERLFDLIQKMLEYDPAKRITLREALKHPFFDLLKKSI

Sequence of Mitogen-activated protein kinase 6 (Homo sapiens) (Q16659 whole entry, canonical isoform): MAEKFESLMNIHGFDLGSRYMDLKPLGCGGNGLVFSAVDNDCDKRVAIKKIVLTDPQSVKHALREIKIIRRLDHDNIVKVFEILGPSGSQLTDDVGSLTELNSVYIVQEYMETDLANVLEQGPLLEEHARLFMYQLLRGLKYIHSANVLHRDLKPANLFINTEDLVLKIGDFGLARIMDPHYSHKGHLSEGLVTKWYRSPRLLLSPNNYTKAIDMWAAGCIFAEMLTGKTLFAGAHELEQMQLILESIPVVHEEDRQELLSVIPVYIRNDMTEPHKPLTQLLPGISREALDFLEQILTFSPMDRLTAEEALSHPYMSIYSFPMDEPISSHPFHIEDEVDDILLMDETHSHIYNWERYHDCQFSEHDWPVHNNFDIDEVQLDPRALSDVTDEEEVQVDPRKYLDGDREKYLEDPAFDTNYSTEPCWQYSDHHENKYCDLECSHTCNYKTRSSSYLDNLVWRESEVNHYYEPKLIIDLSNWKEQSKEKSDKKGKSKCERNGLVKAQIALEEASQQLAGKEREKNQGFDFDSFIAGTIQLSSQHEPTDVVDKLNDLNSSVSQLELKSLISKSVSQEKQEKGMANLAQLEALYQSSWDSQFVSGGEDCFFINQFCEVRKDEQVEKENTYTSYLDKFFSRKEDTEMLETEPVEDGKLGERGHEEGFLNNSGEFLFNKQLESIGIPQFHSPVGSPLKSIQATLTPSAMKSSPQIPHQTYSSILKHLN
Sequence of Cyclin-dependent kinase-like 1 (Homo sapiens) (Q00532 whole entry): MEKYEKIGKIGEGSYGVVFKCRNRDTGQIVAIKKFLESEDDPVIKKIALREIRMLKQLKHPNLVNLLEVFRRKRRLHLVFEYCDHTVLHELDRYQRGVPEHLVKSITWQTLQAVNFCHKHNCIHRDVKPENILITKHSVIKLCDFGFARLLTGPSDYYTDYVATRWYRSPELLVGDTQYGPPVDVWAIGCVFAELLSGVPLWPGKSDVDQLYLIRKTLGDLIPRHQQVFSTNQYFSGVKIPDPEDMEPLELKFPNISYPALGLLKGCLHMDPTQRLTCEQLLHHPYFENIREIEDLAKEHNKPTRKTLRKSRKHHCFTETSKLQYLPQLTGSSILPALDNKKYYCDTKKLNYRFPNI
Sequence of Casein kinase I isoform gamma-3 (Homo sapiens) (Q9Y6M4 whole entry, looked up, canonical isoform): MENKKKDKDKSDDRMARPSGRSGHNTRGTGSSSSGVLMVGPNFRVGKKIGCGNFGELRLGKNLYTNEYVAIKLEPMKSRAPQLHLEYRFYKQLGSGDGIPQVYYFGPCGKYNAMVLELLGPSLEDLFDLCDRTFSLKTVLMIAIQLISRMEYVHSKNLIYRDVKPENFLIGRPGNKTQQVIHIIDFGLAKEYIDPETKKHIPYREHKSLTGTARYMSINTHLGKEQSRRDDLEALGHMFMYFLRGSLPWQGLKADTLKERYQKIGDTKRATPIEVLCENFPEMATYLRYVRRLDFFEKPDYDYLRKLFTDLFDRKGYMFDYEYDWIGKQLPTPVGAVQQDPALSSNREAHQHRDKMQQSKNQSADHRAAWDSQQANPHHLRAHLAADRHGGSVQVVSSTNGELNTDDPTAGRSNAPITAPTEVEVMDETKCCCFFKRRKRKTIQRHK

| SMILES | ΔTm [1] | ΔTm [2] | ΔTm [3] | ΔTm [4] | ΔTm [5] | ΔTm [6] | ΔTm [7] | ΔTm [8] | ΔTm [9] | ΔTm [10] | ΔTm [11] | ΔTm [12] | ΔTm [13] | ΔTm [14] | ΔTm [15] | ΔTm [16] | ΔTm [17] | ΔTm [18] |
| --- | --- | --- | --- | --- | --- | --- | --- | --- | --- | --- | --- | --- | --- | --- | --- | --- | --- | --- |
| CN[C@@H]1CC2O[C@@](C)([C@@H]1OC)n1c3ccccc3c3c4c(c5c6ccccc6n2c5c31)C(=O)NC4 | 6.6 °C | 5.7 °C | 12.3 °C | 1 °C | 1 °C | 1.9 °C | 9.6 °C | 4.2 °C | 9.3 °C | 2 °C | 0.5 °C | 21.2 °C | 0.3 °C |  |  |  |  |  |
| Oc1ccc(-c2nc(-c3ccc(F)cc3)c(-c3ccncc3)[nH]2)cc1 | -0.2 °C | 0.7 °C | 0.6 °C | 0.2 °C | 0.2 °C | 1.1 °C | 0.5 °C | -0.1 °C | 0 °C | 0.7 °C | 10.9 °C | 1.1 °C | 0.3 °C | 0.2 °C | 0.1 °C | -0.3 °C | 0.8 °C | 0.8 °C |
| CC(C)N(CCO)c1nc(Nc2cccc(Cl)c2)c2ncn(C(C)C)c2n1 | 0.3 °C | 3.3 °C | 6 °C | 0.2 °C | 0.1 °C | 6.7 °C | 3.1 °C | 4.2 °C | 2.8 °C | 2.7 °C | -0.4 °C | 1.2 °C | 0.4 °C | 2.2 °C | 0.4 °C | 4.7 °C | 0.2 °C | 5.9 °C |
| Nc1cc2ncnc(Nc3cccc(Br)c3)c2cc1N | 0.8 °C | 0.1 °C | 0.9 °C | 0.8 °C | 0.6 °C | 0.4 °C | 0.1 °C | 1.6 °C | 3.6 °C | 1.2 °C | 2.5 °C | 1.5 °C | 0 °C | 0.4 °C | -0.4 °C | 0.6 °C | 2.6 °C | 2.2 °C |
| O=C1Nc2ccccc2/C1=C1/Nc2ccccc2/C1=N\O | 6.1 °C | 3.8 °C | 7.5 °C | 5.9 °C | 0.4 °C | 2.7 °C | 11.7 °C | 4 °C | 4.4 °C | 4.2 °C | 2.4 °C | 10.9 °C | 2.3 °C | 5.5 °C | 2.1 °C | 3.4 °C | 2.8 °C | 7.7 °C |
| O=C(O)/C=C/c1cc(CO)ccc1CO | -0.1 °C | 0.1 °C | 0.3 °C | 0.3 °C | 0.3 °C | 0.4 °C | 0.3 °C | 0 °C | 0.4 °C | 0.3 °C | 0.3 °C | 1 °C | 0.2 °C | 0.5 °C | 0.4 °C | 0.1 °C | 1.6 °C | 0.2 °C |
| CC(C)c1cc(/C=C(\C#N)C(=O)NCCCc2ccccc2)cc(C(C)C)c1O | 1.2 °C | 0.7 °C | 1 °C | 0.3 °C | 1.3 °C | 0.7 °C | 0.5 °C | 1.2 °C | 0.3 °C | 0.7 °C | 0.1 °C | 0.9 °C | 0.8 °C | 1.2 °C | 1.5 °C | 1.2 °C | 0.7 °C | 2.8 °C |
| O=C1c2ccccc2-c2n[nH]c3cccc1c23 | 0.7 °C | 1 °C | 3.5 °C | 0.3 °C | 0.5 °C | 2 °C | 6.9 °C | 2 °C | 2.1 °C | 2.6 °C | 0.8 °C | 6.3 °C | 0.1 °C | 1.5 °C |  | 1.5 °C | 3.6 °C | 4.7 °C |
| NC1=NC(=O)/C(=C2\CCNC(=O)c3[nH]c(Br)cc32)N1 [HYMENIALDISINE] | 0.6 °C | 1 °C | 4.2 °C | 1.1 °C | -0.1 °C | 3.5 °C | 1.5 °C | 8.3 °C | 4 °C | 0.8 °C | 0.1 °C | 3 °C | 0.3 °C | 0.1 °C | 0.4 °C | 1.6 °C | 3.7 °C | 9.2 °C |
| Nc1nccc(-c2c(-c3ccc(F)cc3)ncn2C2CCNCC2)n1 | 0.4 °C | 0.3 °C | 0.8 °C | 0.3 °C | 0.3 °C | 2.4 °C | -0.1 °C | 0.1 °C | -1.3 °C | 0.2 °C |  | 0.2 °C | 0 °C | 0.2 °C | -0.2 °C | 1 °C | 0.2 °C | 1.3 °C |
| CC(C)(C)c1cc(C=C2C(=O)C=CC2=O)cc(C(C)(C)C)c1O | -5.5 °C | 0.4 °C | 0.5 °C | -6.6 °C | -0.7 °C | 0.2 °C | 0.2 °C | 0.1 °C | 0.5 °C | 0 °C | -1.5 °C | 1 °C | -0.2 °C | -1.5 °C | -0.3 °C | 1.5 °C | -5.7 °C | 0 °C |
| Cc1ccc(NC(=O)c2ccc(CN3CCN(C)CC3)cc2)cc1Nc1nccc(-c2cccnc2)n1 | 0.3 °C | 0.7 °C | 2.1 °C | 0.2 °C | 0.5 °C | 0.3 °C | 2.9 °C |  | 1 °C | 0.5 °C | -0.5 °C | 0.2 °C | -0.2 °C | -0.5 °C | 0.1 °C | 0.4 °C | 0.6 °C |  |
